Measurements: patent US20250188078A1, “SMALL MOLECULE INHIBITORS OF THE CRL4 UBIQUITIN LIGASE” (Cornell University, priority 2022, published 2025)

What was measured:
[1] = Dynamic light scattering (DLS) solubility assay; type: physicochemical; conditions: normalized intensity ratio of 25 μM compound vs DMSO, in PBS
Procedure: Dynamic light scattering (DLS) (see Table 1, column 3) is a tool for studying the diffusion behavior of macromolecules in solution. To profile compound solubility, DLS assay was developed for measuring aggregation of small molecule compounds. Compound stock solution was prepared in DMSO. Dilution series were made for each compound in DMSO to ensure a final 1× assay concentration range of 200 μM to 0.78 μM. For example, if the final DMSO concentration was 1%, compounds were prepared at 100× concentrations ranging from […] to 78 μM. Dilute compounds in PBS solution to final concentration. Place 60 μl/well in 96 well plates and 3 replicates for each sample. Data were collected using a DynaPro Plate Reader III (WYATT Technologies, Inc., USA). The instrument was adjusted to measure the optimal light scattering intensity according to the manufacturer's instructions. […] The ratio over 2 means (−) insoluble. The ratio below 2 means (+) soluble and around 2 means (+/−).

[2] = target: CUL4A-DDB1-BPB interaction (Homo sapiens (Human), UniProt Q16531); test: AlphaLISA in vitro binding assay, CUL4A and DDB1-BPB binding; conditions: inhibition of CUL4A and DDB1-BPB binding
From the text: AlphaLISA IC50 (see Table 1, column 4) means the half maximal inhibitory concentration of compound that inhibits CUL4A and DDB1-BPB binding. Our lab established and optimized 384 well-based AlphaLISA in vitro binding assay for testing small molecule inhibitory activity. Small molecule libraries were screened for compounds that disrupt CUL4A-DDB1-BPB interaction using AlphaScreen detection beads (PerkinElmer, #AL112C and #6765300) following the manufacturer's protocol (https://www.perkinelmer.com/PDFs/downloads/GDE-Alphatech.pdf, hereby incorporated by reference in its entirety for all purposes). The 384-well assay plates (Greiner Bio-one, #781075) were read in Synergy Neo2 Hybrid Multi-Mode Reader (BioTek). The IC50 was calculated by Prism 8 XY analysis nonlinear regression (curve fit-Log(inhibitor) vs response).

[3] = test system: CUL4A^high MDA-MB-468 breast cancer cells; test: Cell killing in CUL4-high MDA-MB-468 cells (CellTiter Glo); type: cell-based; conditions: Homo sapiens, 192 h; MDA-MB-468 cells, 8 days treatment; read-out: EC50 CUL4-High Cells (cell killing)
Procedure: EC50 refers to concentration of compound that induces 50% killing of CUL4A^high MDA-MB-468 cells (see Table 1, column 6). CUL4A^high MDA-MB-468 breast cancer cells were seeded in 96 well plates. After 24 hours, cells were treated with DMSO or compounds. Change fresh medium and compounds. After 8 days treatment, cell viability was examined by using CellTiter Glo kit (Promega #7570) following the manufacturer's guidelines (https://www.promega.com/-/media/files/resources/protocols/technicalbulletins/0/celltiter-glo-luminescent-cell-viability-assay protocol.pdf?rev=0d95c232094b41daa06d0c110d1d916f&sc_lang=en, hereby incorporated by reference in its entirety for all purposes). EC50 concentration was calculated by Prism 8 XY analysis nonlinear regression (curve fit-Log(inhibitor) vs response). Lower EC50 indicates high cell killing potential in CUL4^high MDA-MB-468 cells.
CUL4A^high MDA-MB-468, CUL4^low (T47D), and MCF7 breast cancer cells were seeded in 96 well plates separately. Cells were treated with DMSO, or from 0 to 20 μM compound respectively. Replace with fresh medium and compounds every 48 hours. After 8 days treatment, cell viability was examined by CellTiter Glo kit (Promega #7570). First, transfer the appropriate volume (10 ml for Cat. #G7570) of CellTiter-Glo® Buffer into the amber bottle containing CellTiter-Glo® Substrate to reconstitute the lyophilized enzyme/substrate mixture. This forms the CellTiter-Glo® Reagent. Second, add CellTiter-Glo® Reagent in an equal volume (100 μl per well for 96-well plates) to all wells. Mix contents for 2 minutes on an orbital shaker to induce cell lysis. Incubate at room temperature for 15 minutes to stabilize luminescent signal. Then record luminescence. EC50 concentration was calculated by Prism 8 XY analysis nonlinear regression (curve fit-Log(inhibitor) vs response).

[4] = test system: UV-induced CUL4-dependent DDB2 degradation in MEF-F-DDB2 cells; test: Cell-based assay for inhibition of UV-induced CUL4-dependent DDB2 degradation; set-up: key: (+) means that the normalized DDB2/α-tubulin ratio is higher in the compound treated sample than DMSO treated sample; (−) means that no change happens between compound treated sample with control sample; conditions: DDB2/α-tubulin by Western blot
Procedure: Cell-based assay for inhibition of UV-induced CUL4-dependent DDB2 degradation by small molecule CUL4 inhibitors (see Table 1, column 5). Briefly, MEF-F-DDB2 cells were seeded in 6-well plates. DMSO or indicated concentrations of compounds were added to MEF-F-DDB2 cells growing in serum-free medium. MEF-F-DDB2 cells were washed once with PBS and subsequently irradiated with a Philips TUV lamp (predominantly 254 nm) at a dose rate of 0.2 W/m^2. DMSO or compounds were added to MEF-F-DDB2 cells, and then cells were harvested. The cells were lysed, and equal amounts of proteins were resolved on SDS-PAGE gel and Flag-DDB2 levels were detected using anti-DDB2 (D4C4) rabbit antibody (Cell signaling, #5416S). α-tubulin (Proteintech, #66031-1-Ig) was used as an internal loading control. (+) means that the normalized DDB2/α-tubulin ratio is higher in the compound treated sample than DMSO treated sample. (−) means that no change happens between compound treated sample with control sample.

Chain of CUL4A-DDB1-BPB interaction (Q16531 403-706): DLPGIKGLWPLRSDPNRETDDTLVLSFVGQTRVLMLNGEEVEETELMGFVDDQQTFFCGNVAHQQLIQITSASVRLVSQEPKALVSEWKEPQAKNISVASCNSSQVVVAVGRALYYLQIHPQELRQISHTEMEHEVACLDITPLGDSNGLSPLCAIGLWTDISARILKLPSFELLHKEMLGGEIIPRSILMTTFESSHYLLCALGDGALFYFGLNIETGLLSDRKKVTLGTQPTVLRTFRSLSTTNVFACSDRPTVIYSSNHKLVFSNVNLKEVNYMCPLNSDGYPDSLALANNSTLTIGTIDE

Row | Compound | Solubility (DLS Assay) [1] | IC50 [2] [µM] | EC50 [3] [µM] | AlphaLisa IC50 [2] | Degradation Inhibition (inhibition of UV-induced DDB2 degradation) [4]
1 | CN(c1ccc(-c2nc(C(=O)O)cc3c2[nH]c2cc(F)c(F)cc23)cc1)S(=O)(=O)c1ccccc1 [PA1-7, 6,7-difluoro-1-(4-(N-methylphenylsulfonamido)phenyl)-9H-pyrido[3,4-b]indole-3-carboxylic acid] | -(insoluble) | 0.127 | 8.65 |  | 
2 | COC(=O)c1cc2c([nH]c3cc(C#N)ccc32)c(-c2ccc(N(C)S(=O)(=O)c3ccccc3)cc2)n1 [PA1-9 ESTER, methyl 7-cyano-1-(4-(N-methylphenylsulfonamido)phenyl)-9H-pyrido[3,4-b]indole-3-carboxylate] | -(insoluble) |  |  | Neg | 
3 | CN(c1ccc(-c2nc(C(=O)O)cc3c2[nH]c2cc(C#N)ccc23)cc1)S(=O)(=O)c1ccccc1 [PA1-9, 7-cyano-1-(4-(N-methylphenylsulfonamido)phenyl)-9H-pyrido[3,4-b]indole-3-carboxylic acid] | -(insoluble) | 0.085 | 7.87 |  | +
4 | O=C(O)c1cc2c([nH]c3cc(F)ccc32)c(-c2ccc(OCC3CCOCC3)cc2)n1 [PA1-11E, 7-fluoro-1-(4-((tetrahydro-2H-pyran-4-yl)methoxy)phenyl)-9H-pyrido[3,4-b]indole-3-carboxylic acid] |  |  | > 20 |  | −
5 | O=C(O)c1cc2c([nH]c3cc(F)ccc32)c(-c2ccc(OCc3ccncc3)cc2)n1 [PA1-11F, 7-fluoro-1-(4-(pyridin-4-ylmethoxy)phenyl)-9H-pyrido[3,4-b]indole-3-carboxylic acid] |  |  | > 20 |  | −
6 | O=C(O)c1cc2c([nH]c3cc(F)ccc32)c(-c2ccc(OCc3cccnc3)cc2)n1 [PA1-11G, 7-fluoro-1-(4-(pyridin-3-ylmethoxy)phenyl)-9H-pyrido[3,4-b]indole-3-carboxylic acid] |  |  | > 20 |  | −
7 | O=C(O)c1cc2c([nH]c3cc(F)ccc32)c(-c2ccc(OCc3ccccn3)cc2)n1 [PA1-11H, 7-fluoro-1-(4-(pyridin-2-ylmethoxy)phenyl)-9H-pyrido[3,4-b]indole-3-carboxylic acid] | -(insoluble) |  |  |  | −
8 | O=C(O)c1cc2c([nH]c3cc(F)ccc32)c(-c2ccc(OCc3ccsc3)cc2)n1 [PA1-11I, 7-fluoro-1-(4-(thiophen-3-ylmethoxy)phenyl)-9H-pyrido[3,4-b]indole-3-carboxylic acid] |  |  | 14 |  | −
9 | O=C(O)c1cc2c([nH]c3cc(F)ccc32)c(-c2ccc(OCc3cscn3)cc2)n1 [PA1-11K, 7-fluoro-1-(4-(thiazol-4-ylmethoxy)phenyl)-9H-pyrido[3,4-b]indole-3-carboxylic acid] |  |  | > 20 |  | −
10 | Cc1cc(N(C)S(=O)(=O)c2ccccc2)ccc1-c1nc(C(=O)O)cc2c1[nH]c1cc(F)ccc12 [PA1-12A, 7-fluoro-1-(2-methyl-4-(N-methylphenylsulfonamido)phenyl)-9H-pyrido[3,4-b]indole-3-carboxylic acid] |  | 2.4 | 9.84 |  | −
11 | COC(=O)c1cc2c([nH]c3cc(F)ccc32)c(-c2ccc(N(C)S(=O)(=O)c3ccc(C#N)cc3)cc2)n1 [PA1-13A-2 ESTER] |  |  | > 20 | Neg | +
12 | CN(c1ccc(-c2nc(C(=O)O)cc3c2[nH]c2cc(F)ccc23)cc1)S(=O)(=O)c1ccc(C#N)cc1 [PA1-13A-2, 1-(4-((4-cyano-N-methylphenyl)sulfonamido)phenyl)-7-fluoro-9H-pyrido[3,4-b]indole-3-carboxylic acid] |  | 2.51 | 3.54 |  | −
13 | CN1CCN(c2ccc(S(=O)(=O)N(C)c3ccc(-c4nc(C(=O)O)cc5c4[nH]c4cc(F)ccc45)cc3)cc2)CC1 [PA1-13A-7, 7-fluoro-1-(4-((N-methyl-4-(4-methylpiperazin-1-yl)phenyl)sulfonamido)phenyl)-9H-pyrido[3,4-b]indole-3-carboxylic acid] |  | 0.38 | 14.5 |  | −
14 | COC(=O)c1cc2c([nH]c3cc(F)cc(C)c32)c(-c2ccc(N(C)S(=O)(=O)c3ccccc3)cc2)n1 [PA1-14 ESTER, methyl 1-[4-[benzenesulfonyl(methyl)amino]phenyl]-7-fluoro-5-methyl-9H-pyrido[3,4-b]indole-3-carboxylate] | -(insoluble) |  |  | Neg | −
15 | Cc1ccc(-c2nc(C(=O)O)cc3c2[nH]c2ccccc23)cc1 [PA2] | -(insoluble) | 3.43 ± 1.57 |  |  | +
16 | O=C(O)c1cc2c([nH]c3ccccc32)c(-c2ccc(F)cc2)n1 [PA3] | +/− | 1.41 ± 0.31 |  |  | +
17 | O=C(O)c1cc2c([nH]c3ccccc32)c(-c2cccc(F)c2)n1 [PA5] | -(insoluble) | 2.34 ± 0.77 |  |  | 
18 | Cc1cccc(-c2nc(C(=O)O)cc3c2[nH]c2ccccc23)c1 [PA7] | -(insoluble) | 10.2 ± 3.33 |  |  | 
19 | COc1cccc(-c2nc(C(=O)O)cc3c2[nH]c2ccccc23)c1 [PA8] | -(insoluble) | 7.75 ± 1.82 |  |  | 
20 | NC(=O)c1cc2c([nH]c3ccccc32)c(-c2ccc([N+](=O)[O-])cc2)n1 [PA9, 1-(4-nitrophenyl)-9H-pyrido[3,4-b]indole-3-carboxamide] | -(insoluble) |  |  | Neg | +
21 | N#Cc1ccc(-c2nc(C(=O)O)cc3c2[nH]c2ccccc23)cc1 [PA19] | -(insoluble) | 2.01 ± 0.44 |  |  | +
22 | O=C(O)c1cc2c([nH]c3ccccc32)c(-c2cc(F)c(F)c(F)c2)n1 [PA33] | -(insoluble) | 2 ± 0.38 |  |  | 
23 | CS(=O)(=O)c1ccc(-c2nc(C(=O)O)cc3c2[nH]c2ccc(F)cc23)cc1 [PA71] | -(insoluble) | 0.36 ± 0.04 |  |  | −
24 | COc1ccc2[nH]c3c(-c4ccc(S(C)(=O)=O)cc4)nc(C(=O)O)cc3c2c1 [PA74] | -(insoluble) | 1.83 ± 0.09 |  |  | +
